Experiments:
human Factor 11 mRNA [1] = experiment: Dose-dependent inhibition of human Factor 11 in HepG2 cells, lipofectin 2.34-75 nM (Example 5); type: cell-based; conditions: for percent inhibition of human Factor 11 mRNA relative to untreated control cells: ~16 hours
Method: Cells were plated at a density of 10,000 cells per well and transfected using lipofectin reagent with 2.34 nM, 4.69 nM, 9.375 nM, 18.75 nM, 37.5 nM, and 75 nM concentrations of antisense oligonucleotide, as specified in Table 11. After a treatment period of approximately 16 hours, RNA was isolated from the cells and human Factor 11 mRNA levels were measured by quantitative real-time PCR. Human Factor 11 primer probe set RTS 2966 was used to measure mRNA levels. Factor 11 mRNA levels were adjusted according to total RNA content, as measured by RIBOGREEN. Results are presented as percent inhibition of human Factor 11, relative to untreated control cells.

Factor 11 mRNA = Factor 11 mRNA in cynomolgus monkey liver, day 55 (Example 46); type: in vivo, cynomolgus monkeys; conditions: 25 mg/kg subcutaneously, primer probe set LTS00301
Outline: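 Male and female cynomolgus monkeys (2+2 per group) received antisense oligonucleotides sc at 25 mg/kg, three times weekly in week 1 and twice weekly in weeks 2-8. PBS-dosed animals served as control. Factor 11 mRNA in liver on day 55 was measured by real-time PCR (primer probe set LTS00301) as percent inhibition relative to PBS control.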

human Factor 11 mRNA [2] = experiment: Dose-dependent inhibition of human Factor 11 in HepG2 cells, lipofectin 9.375-75 nM (Example 4); type: cell-based; conditions: for percent inhibition of Factor 11 at 9.375 nM / percent inhibition of Factor 11 at 18.75 nM / percent inhibition of Factor 11 at 37.5 nM / percent inhibition of Factor 11 at 75 nM: relative to untreated control cells
Outline: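 HepG2 cells transfected via lipofectin with antisense oligonucleotide at 9.375, 18.75, 37.5 or 75 nM for about 16 h. Factor 11 mRNA quantified by real-time RT-PCR (primer probe set RTS 2966) and normalized to total RNA (RIBOGREEN). Results expressed as percent inhibition versus untreated cells.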

[3] = parameters: species or system Sprague-Dawley rats; conditions: rat, in vivo
Method: Three days after the last dose, the rats were sacrificed and livers and kidneys were collected for analysis.
The concentration of the full-length oligonucleotide as well as the total oligonucleotide concentration (including the degraded form) was measured. The method used is a modification of previously published methods (Leeds et al., 1996; Geary et al., 1999) which consist of a phenol-chloroform (liquid-liquid) extraction followed by a solid phase extraction. An internal standard (ISIS 355868, a 27-mer 2′-O-methoxyethyl modified phosphorothioate oligonucleotide, […], designated herein as SEQ ID NO: 270) was added prior to extraction. […] The results are presented in Tables 77 and 78, expressed as μg/g liver or kidney tissue. Half-lives were then calculated using WinNonlin software ([…]).

Factor 11 protein = Factor 11 protein in monkey plasma by sandwich ELISA (Example 46); type: in vivo, cynomolgus monkeys; conditions: 25 mg/kg subcutaneously
Outline: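 Monkeys (2 male, 2 female per group) dosed s.c. with antisense oligonucleotide at 25 mg/kg, three times weekly in week 1 then twice weekly through week 8; PBS controls. Plasma Factor 11 measured by sandwich ELISA (1:50 dilution, OPD, 490 nm); expressed as % reduction versus PBS.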

Row | Substance | IC50 (human Factor 11 mRNA [1]) [nM] | percent inhibition of human Factor 11 mRNA relative to untreated control cells (human Factor 11 mRNA [1]; 2.34 nM) [%] | percent inhibition of human Factor 11 mRNA relative to untreated control cells (human Factor 11 mRNA [1]; 4.69 nM) [%] | percent inhibition of human Factor 11 mRNA relative to untreated control cells (human Factor 11 mRNA [1]; 9.375 nM) [%] | percent inhibition of human Factor 11 mRNA relative to untreated control cells (human Factor 11 mRNA [1]; 18.75 nM) [%] | percent inhibition of human Factor 11 mRNA relative to untreated control cells (human Factor 11 mRNA [1]; 37.5 nM) [%] | percent inhibition of human Factor 11 mRNA relative to untreated control cells (human Factor 11 mRNA [1]; 75 nM) [%] | % inhibition of Factor 11 mRNA in liver relative to the PBS control (Factor 11 mRNA) [%] | IC50 (human Factor 11 mRNA [2]) [nM] | percent inhibition of Factor 11 at 9.375 nM (human Factor 11 mRNA [2]) [%] | percent inhibition of Factor 11 at 18.75 nM (human Factor 11 mRNA [2]) [%] | percent inhibition of Factor 11 at 37.5 nM (human Factor 11 mRNA [2]) [%] | percent inhibition of Factor 11 at 75 nM (human Factor 11 mRNA [2]) [%] | Half-life in the liver and kidney [3] [days] | Inhibition of Factor 11 protein relative to the PBS control (percentage reduction) (Factor 11 protein; Day 10, plasma) [%] | Inhibition of Factor 11 protein relative to the PBS control (percentage reduction) (Factor 11 protein; Day 17, plasma) [%] | Inhibition of Factor 11 protein relative to the PBS control (percentage reduction) (Factor 11 protein; Day 24, plasma) [%] | Inhibition of Factor 11 protein relative to the PBS control (percentage reduction) (Factor 11 protein; Day 31, plasma) [%] | Inhibition of Factor 11 protein relative to the PBS control (percentage reduction) (Factor 11 protein; Day 38, plasma) [%] | Inhibition of Factor 11 protein relative to the PBS control (percentage reduction) (Factor 11 protein; Day 45, plasma) [%] | also measured
1 | 416858 (antisense ACGGCATTGGTGCACAGTTT; 5-10-5 gapmer, further chemistry not given here) [compound 416858] | 11 | 11 | 35 | 46 | 61 | 75 | 77 | 89 | 33 | 0 | 28 | 54 | 82 | 26 | 36 | 49 | 62 | 68 | 74 | 79 | Inhibition of Factor 11 protein relative to the PBS control (percentage reduction) (Factor 11 protein; Day 52, plasma): 81%; Inhibition of Factor 11 protein relative to the PBS control (percentage reduction) (Factor 11 protein; Day 55, plasma): 81%; Inhibition of Factor 11 protein relative to the PBS control (percentage reduction) (Factor 11 protein; Day −5, plasma): 0%; Inhibition of Factor 11 protein relative to the PBS control (percentage reduction) (Factor 11 protein; Day −14, plasma): 4%
2 | 416850 (antisense TGCACAGTTTCTGGCAGGCC; 5-10-5 gapmer, further chemistry not given here) [compound 416850] | 13 | 24 | 31 | 49 | 55 | 70 | 77 | 68 | 29 | 4 | 30 | 67 | 84 | 18 | 20 | 31 | 38 | 52 | 51 | 53 | Inhibition of Factor 11 protein relative to the PBS control (percentage reduction) (Factor 11 protein; Day 52, plasma): 53%; Inhibition of Factor 11 protein relative to the PBS control (percentage reduction) (Factor 11 protein; Day 55, plasma): 58%; Inhibition of Factor 11 protein relative to the PBS control (percentage reduction) (Factor 11 protein; Day −5, plasma): 0%; Inhibition of Factor 11 protein relative to the PBS control (percentage reduction) (Factor 11 protein; Day −14, plasma): 0%
